# Activity calls are given as the source filed them.
# Legend:
# [1] = Luminescence Cell-Based Dose Retest to Confirm Inhibitors of Cancer Stem Cells. [Related pubchem assays (depositor defined):AID2717, AID2721]; format: functional; conditions: Homo sapiens
# [2] = Fluorescence-based cell-based high throughput dose response assay for inhibitors of the interaction of nucleotide-binding oligomerization domain containing 2 (NOD2) and the receptor-interacting serine-threonine kinase 2 (RIPK2).; format: functional; conditions: Homo sapiens
# [3] = P. falciparum late gametocyte killing, dose response, luminescence (AID 1117278); format: functional, cell-based;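 further: gametocytes exposed to compound for 24 hours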
# [4] = Jurkat T cell cytotoxicity, dose response, cytotoxicity control for P. falciparum gametocyte viability project, luminescence (AID 1117277); format: functional, cell-based;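 further: potency reflects loss of cellular ATP meaning fewer viable cells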
# [5] = test system: HEK293; assay: cells; format: functional, cell-based; conditions: Homo sapiens
# [6] = target: T1, Nuclear receptor subfamily 0 group B member 1 (Homo sapiens, UniProt P51843); assay: Luminescence-based cell-based high throughput dose response assay for inhibitors of the orphan nuclear receptor subfamily 0, group B, member 1 (DAX1; NR0B1). [Related pubchem assays (depositor defined):AID504766, AID504790]; format: functional
# T1 sequence (P51843 whole entry): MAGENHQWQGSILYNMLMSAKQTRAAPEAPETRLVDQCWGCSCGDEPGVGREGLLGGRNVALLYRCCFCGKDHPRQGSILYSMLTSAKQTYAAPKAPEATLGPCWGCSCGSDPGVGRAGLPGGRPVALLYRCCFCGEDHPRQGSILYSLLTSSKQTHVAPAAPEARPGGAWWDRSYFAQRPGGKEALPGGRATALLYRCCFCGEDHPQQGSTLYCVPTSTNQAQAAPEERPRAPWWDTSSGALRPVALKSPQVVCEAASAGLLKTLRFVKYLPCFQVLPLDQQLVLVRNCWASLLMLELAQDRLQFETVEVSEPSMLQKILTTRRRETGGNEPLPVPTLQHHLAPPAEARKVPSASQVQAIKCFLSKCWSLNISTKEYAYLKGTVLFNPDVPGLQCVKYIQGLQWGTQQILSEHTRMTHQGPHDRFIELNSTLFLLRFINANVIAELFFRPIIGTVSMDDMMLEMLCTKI
# [7] = target: T2, Sentrin-specific protease 8 (Homo sapiens, UniProt Q96LD8); format: functional
# T2 sequence (Q96LD8 whole entry): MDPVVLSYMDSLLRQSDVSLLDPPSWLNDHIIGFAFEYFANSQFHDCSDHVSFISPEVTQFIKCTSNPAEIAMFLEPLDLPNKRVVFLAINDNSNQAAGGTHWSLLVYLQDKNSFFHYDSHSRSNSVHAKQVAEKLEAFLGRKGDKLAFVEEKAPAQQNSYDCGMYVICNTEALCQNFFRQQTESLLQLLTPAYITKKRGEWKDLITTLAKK
# [8] = target: T2, Sentrin-specific protease 8; format: functional; remark: listed apart in the source
# [9] = target: NAD-dependent protein deacylase sirtuin-5, mitochondrial (Homo sapiens, UniProt Q9NXA8); assay: SIRT5 desuccinylase inhibitors, dose response, biochemical, fluorescence imaging, cherry-pick, set 5 (AID 720591);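 further: desuccinylation of succinyl peptide AMC substrate read as fluorescence after trypsin release; potency of inhibitors that lower fluorescence and may act on trypsin instead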
# NAD-dependent protein deacylase sirtuin-5, mitochondrial, sequence (Q9NXA8 whole entry): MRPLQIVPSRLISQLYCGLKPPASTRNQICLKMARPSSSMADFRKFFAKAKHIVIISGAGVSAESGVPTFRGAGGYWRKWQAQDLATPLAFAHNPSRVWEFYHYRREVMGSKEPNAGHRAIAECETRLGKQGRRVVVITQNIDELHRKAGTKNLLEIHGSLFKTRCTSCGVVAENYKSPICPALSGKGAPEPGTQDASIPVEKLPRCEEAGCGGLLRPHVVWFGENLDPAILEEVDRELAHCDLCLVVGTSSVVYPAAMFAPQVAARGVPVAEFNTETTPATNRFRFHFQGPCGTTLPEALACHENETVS
# [10] = target: T3, Cysteine protease ATG4B (Homo sapiens, UniProt Q9Y4P1); format: functional;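 further: Fluorescence-based dose-response confirmation assay measuring inhibition of ATG4B activity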
# T3 sequence (Q9Y4P1 whole entry): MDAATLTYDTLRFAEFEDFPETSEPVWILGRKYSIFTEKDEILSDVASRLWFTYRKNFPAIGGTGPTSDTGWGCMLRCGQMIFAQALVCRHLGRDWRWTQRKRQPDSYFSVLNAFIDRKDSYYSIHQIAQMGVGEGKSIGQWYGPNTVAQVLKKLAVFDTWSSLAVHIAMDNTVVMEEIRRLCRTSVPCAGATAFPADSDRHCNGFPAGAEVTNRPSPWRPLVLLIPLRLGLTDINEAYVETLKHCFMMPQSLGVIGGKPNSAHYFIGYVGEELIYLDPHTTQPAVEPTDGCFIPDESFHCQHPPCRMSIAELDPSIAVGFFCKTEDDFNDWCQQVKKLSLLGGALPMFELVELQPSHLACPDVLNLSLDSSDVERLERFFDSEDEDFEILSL
# [11] = target: Heat shock protein HSP 90-alpha (Homo sapiens, UniProt P07900); format: functional, organism-based
# [12] = target: Phospholipase A2 (Homo sapiens, UniProt P04054); format: functional;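 further: confirmatory dose-response counterscreen on phospholipase A2, testing hits that came from an ultra-high-throughput screen for ATG4B inhibitors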
# Phospholipase A2, sequence (P04054 whole entry): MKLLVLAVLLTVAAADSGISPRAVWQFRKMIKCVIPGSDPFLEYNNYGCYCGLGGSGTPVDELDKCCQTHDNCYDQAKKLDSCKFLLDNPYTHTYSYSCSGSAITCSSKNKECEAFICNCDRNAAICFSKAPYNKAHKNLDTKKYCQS
# [13] = target: T4, Mannose-6-phosphate isomerase (Homo sapiens, UniProt P34949); assay: human PMI inhibitors, high substrate, primary screen, biochemical, fluorescence intensity, high mannose 6-phosphate (AID 1220)
# T4 sequence (P34949 whole entry): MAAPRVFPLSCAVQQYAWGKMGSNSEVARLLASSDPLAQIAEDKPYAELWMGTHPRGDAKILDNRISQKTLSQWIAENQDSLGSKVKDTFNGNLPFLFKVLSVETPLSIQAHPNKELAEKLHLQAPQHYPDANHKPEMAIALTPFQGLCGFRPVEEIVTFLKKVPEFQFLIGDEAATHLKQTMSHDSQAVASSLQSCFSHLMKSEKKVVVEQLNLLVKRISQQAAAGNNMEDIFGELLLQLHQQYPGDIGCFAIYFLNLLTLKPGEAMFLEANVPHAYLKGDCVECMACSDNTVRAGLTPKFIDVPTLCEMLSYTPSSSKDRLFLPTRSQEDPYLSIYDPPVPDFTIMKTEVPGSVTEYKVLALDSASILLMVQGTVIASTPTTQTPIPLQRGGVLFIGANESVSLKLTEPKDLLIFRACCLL
# [14] = target: T5, Rac GTPase-activating protein 1 (Homo sapiens, UniProt Q9H0H5); assay: MgcRacGAP GTPase-activating activity inhibitors, confirmation, biochemical, ADP Hunter fluorescence, primary and confirmatory (AID 624330); format: functional
# T5 sequence (Q9H0H5 whole entry): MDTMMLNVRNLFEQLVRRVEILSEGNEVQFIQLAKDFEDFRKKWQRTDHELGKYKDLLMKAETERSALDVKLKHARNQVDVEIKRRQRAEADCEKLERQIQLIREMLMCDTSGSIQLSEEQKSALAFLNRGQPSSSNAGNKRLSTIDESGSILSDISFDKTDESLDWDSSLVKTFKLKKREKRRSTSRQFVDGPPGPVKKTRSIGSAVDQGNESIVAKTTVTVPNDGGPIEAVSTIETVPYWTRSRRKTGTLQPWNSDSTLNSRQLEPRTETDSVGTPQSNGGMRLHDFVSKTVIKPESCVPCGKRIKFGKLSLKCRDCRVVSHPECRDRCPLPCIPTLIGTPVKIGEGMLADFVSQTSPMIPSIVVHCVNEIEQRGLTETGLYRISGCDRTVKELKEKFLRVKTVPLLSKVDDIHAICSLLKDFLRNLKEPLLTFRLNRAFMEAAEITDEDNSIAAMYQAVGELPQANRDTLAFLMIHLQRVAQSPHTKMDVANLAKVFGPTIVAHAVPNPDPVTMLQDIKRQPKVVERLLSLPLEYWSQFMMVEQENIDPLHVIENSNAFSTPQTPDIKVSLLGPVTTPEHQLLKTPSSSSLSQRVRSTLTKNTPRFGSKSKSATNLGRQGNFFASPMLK
# [15] = test system: HEK293; assay: inhibitors of LMP1-driven NF-kB reporter, dose response, cell-based, HEK293, luciferase, cherry-pick (AID 588343); format: functional; conditions: Homo sapiens
# [16] = test system: Vero; assay: Vero cell toxicity, dose response, cytotoxicity control, plate reader, cherry-pick samples (AID 687020); format: functional, cell-based; conditions: Chlorocebus sabaeus
# [17] = Shn3 3'UTR reporter inhibitors, dose response, cell-based, Clone20 osteoblasts, firefly luciferase, cherry-picked (AID 624132); format: functional;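 further: firefly luciferase luminescence from reporter carrying the Shn3 3'UTR in osteoblasts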
# [18] = HepG2 cell cytotoxicity, dose response, cytotoxicity control for Shn3 inhibitor project, CellTiter-Glo, cherry-picked (AID 624134); format: functional, cell-based
# [19] = control 3'UTR Renilla luciferase suppression, dose response, counter-screen for Shn3 inhibitor project, cell-based, Clone20-Shn3RL, cherry-picked (AID 624133); format: functional
# [20] = target: Paired box protein Pax-8 (Homo sapiens, UniProt Q06710); assay: inhibitors of PAX8-driven TPO luciferase reporter, dose response, RMG-I cells, cherry-pick (AID 687027); format: functional, cell-based;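 further: luciferase reporter driven by Pax8 target thyroperoxidase promoter measured by SteadyGlo luminescence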
# Paired box protein Pax-8, sequence (Q06710 whole entry): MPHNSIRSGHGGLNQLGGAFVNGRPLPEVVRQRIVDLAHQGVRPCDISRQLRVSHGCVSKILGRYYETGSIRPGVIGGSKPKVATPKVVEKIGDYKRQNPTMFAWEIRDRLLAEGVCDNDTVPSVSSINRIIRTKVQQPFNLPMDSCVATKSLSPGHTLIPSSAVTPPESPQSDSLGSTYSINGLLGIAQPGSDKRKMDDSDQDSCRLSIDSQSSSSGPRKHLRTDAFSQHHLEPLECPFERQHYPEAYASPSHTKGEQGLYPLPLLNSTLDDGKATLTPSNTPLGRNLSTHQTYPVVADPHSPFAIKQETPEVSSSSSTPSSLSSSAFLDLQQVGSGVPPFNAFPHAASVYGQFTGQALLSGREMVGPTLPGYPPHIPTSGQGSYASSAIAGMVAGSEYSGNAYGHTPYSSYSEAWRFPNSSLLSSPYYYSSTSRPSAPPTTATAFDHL
# [21] = HeLa cell cytotoxicity, dose response, cytotoxicity control for MgcRacGAP inhibitor project (AID 624300); format: functional
# [22] = A549 cell cytotoxicity, dose response, cytotoxicity control, plate reader, cherry-pick, antagonist series (AID 743412); format: functional, cell-based
# [23] = HepG2 cell cytotoxicity, dose response, cytotoxicity control, plate reader, cherry-pick, antagonist series (AID 743416); format: functional, cell-based
# [24] = LGR2 antagonists, dose response, cell-based, HEK293, CRE-luciferase reporter, cherry pick, set 2 (AID 743343); format: functional;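 further: transfected cells were stimulated with diluted bursicon conditioned medium after compound addition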
# [25] = MC4R antagonists, dose response, counter-screen for LGR2 antagonist project, cell-based, plate reader, cherry pick (AID 743444); format: functional;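 further: transfected HEK 293 cells stimulated with alpha-MSH peptide; potency of inhibitors of the alpha-MSH evoked signal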
# [26] = HeLa 2N DNA content increase, dose response, cell-based, IC50 (AID 1117349); format: functional
# [27] = HeLa 4N DNA content increase, dose response, cell-based, IC50 (AID 1117351); format: functional
smiles,measurement,setting,value
O=C(CN(c1cccc(C(F)(F)F)c1)S(=O)(=O)c1ccc(Cl)c([N+](=O)[O-])c1)NCc1ccc(F)cc1,AC50,[1],1.81 µM (active)
same,IC50,[2],5.86 µM (active)
SC1=NC[C@H](c2ccccc2)N1CCCCC1CCCCC1,IC50,[3],> 109 µM (inactive)
same,IC50,[4],79.3 µM (inactive)
COc1ccc(NC(=O)NNC(=O)CCC(=O)Nc2ccccc2Cl)cc1,IC50,[5],> 67.5 µM (inactive)
same,IC50,[6],> 67.5 µM (inactive)
CCN(CC)CC(=O)Nc1ccc2c(c1)N(C(=O)CN(CC)CC)c1ccccc1CC2,IC50,[7],19.1 µM (active)
same,IC50,[8],15.4 µM (active)
COc1cccc(-n2c(SCC(N)=O)nnc2-c2ccco2)c1,AC50,[9],22.1 µM (active)
Oc1ccc(N=Nc2nc(-c3ccccc3)c(-c3ccccc3)[nH]2)cc1,AC50,[1],3.9 µM (active)
same,IC50,[10],9.13 µM (active)
same,AC50,[11],4.75 µM (active)
same,IC50,[12],6.36 µM (active)
COc1ccc2c(c1)-c1nc(N)sc1CC2,IC50,[13],23.8 µM (active)
same,IC50,[14],29.5 µM (active)
CC(NC(=O)CCc1nnc(CCCc2ccccc2)o1)c1ccccc1 (configuration not stated),IC50,[3],> 109 µM (inactive)
same,IC50,[4],> 83.3 µM (inactive)
Cc1cc(C)nc(N=C(Nc2ccccc2Br)NS(=O)(=O)Cc2ccccc2)n1,AC50,[15],33.5 µM (active)
O=C(Nc1ccccc1)C(Cl)C(=O)c1ccccc1 (configuration not stated),AC50,[11],0.786 µM (active)
COc1ccc(S(=O)(=O)NCc2ccc(C(=O)NCc3cccnc3)cc2)cc1,IC50,[3],> 109 µM (inactive)
same,IC50,[4],> 83.3 µM (inactive)
O=C(CCc1nc2ccccc2[nH]1)N1CCc2ccccc2C1,IC50,[7],> 100 µM (inactive)
same,IC50,[8],17.6 µM (active)
O=C(NNC(=O)c1ccccc1O)c1ccc(Br)cc1,IC50,[5],> 67.5 µM (inactive)
same,IC50,[6],> 67.5 µM (inactive)
CCCCC(=O)/N=C(\N)Nc1nc2ccccc2o1,IC50,[5],> 67.6 µM (inactive)
same,IC50,[6],> 67.6 µM (inactive)
CC(C)(C)OC(=O)NCCCCCNC(=O)c1[nH]cnc1C(=O)N1CCc2ccccc2C1,IC50,[7],> 100 µM (inactive)
same,IC50,[8],14.9 µM (active)
Cc1cccc(COC(=O)CCCNC(=O)c2ccc(Cl)cc2)c1,AC50,[11],8.04 µM (active)
O=C1c2ccccc2[C@@H]2C[C@@H](O)[C@H](Nc3cccc4ccccc34)CCN12,AC50,[16],29.8 µM (active)
O=C(O)c1ccc(CNCc2cccc(Cl)c2)cc1,AC50,[9],> 30 µM (inactive)
O=C(NN=Cc1ccc(N(CCCl)CCCl)cc1Cl)c1cccnc1,AC50,[15],1.26 µM (active)
CC(CNC(=O)Cn1ccc(NC(=O)OCc2ccccc2)nc1=O)c1ccccc1 (configuration not stated),AC50,[16],24.6 µM (active)
CC(OC(=O)c1ccc2c(=O)n3c(nc2c1)CCC3)C(=O)NC1CCCCC1C (configuration not stated),AC50,[16],31.1 µM (active)
CCOc1ccc(NC(=O)COC(=O)Cc2ccsc2)cc1,AC50,[9],22.3 µM (active)
C=C1C(=O)[C@]23C[C@H]1CCC2[C@]1(C)CCC[C@@](C)(C(=O)O)C1C[C@@H]3O (some centres not stated),AC50,[17],1.2 µM (active)
same,AC50,[18],> 70 µM (inactive)
same,AC50,[19],8.47 µM (active)
same,IC50,[2],7.03 µM (active)
same,AC50,[20],1.77 µM (active)
O=c1c(-c2ccccc2)c[nH]n1-c1cccc([N+](=O)[O-])c1,IC50,[5],> 67.5 µM (inactive)
same,IC50,[6],> 67.5 µM (inactive)
same,CC50,[21],100 µM (active)
same,IC50,[14],48.4 µM (active)
C[C@H]1CN([C@@H](C)CO)C(=O)c2cccc(NC(=O)NC3CCCCC3)c2O[C@@H]1CN(C)Cc1ccc(C(F)(F)F)cc1,AC50,[22],19.2 µM (active)
same,AC50,[23],26.4 µM (active)
same,AC50,[24],46.4 µM (active)
same,AC50,[25],17.1 µM (active)
CC(C)=CCC/C(C)=C/CC/C(C)=C/C(=O)OCC(=O)[C@@]1(O)CC[C@H]2[C@@H]3CCC4=CC(=O)C=C[C@]4(C)[C@H]3[C@@H](O)C[C@@]21C,IC50,[26],> 10 µM (inactive)
same,IC50,[27],> 10 µM (inactive)
O=C(CNc1cccc2ccccc12)N/N=C/c1ccc(OC(=O)/C=C/c2ccco2)cc1,IC50,[13],> 50 µM (not active)
